Results reported in US20220257764A1, “USE OF DIKETONE COMPOUND IN PHOTODYNAMIC THERAPY OR DIAGNOSIS” (BEIJING WHOLESOMETECH CO., LTD., priority 2019, published 2022).

How the values were obtained:
[1] = Blood routine and blood biochemical indicators of tumor-bearing mice after 2 weeks of treatment; format: in vivo, BALB/C mice; set-up: Mean corpuscular hemoglobin (MCH) / Mean corpuscular volume (MCV) / Red blood cell volume distribution width (RDW) / Hematocrit (HCT) / Hemoglobin (HGB): unit not given here; settings: for Hematocrit (HCT) / Hemoglobin (HGB) / Mean corpuscular hemoglobin (MCH) / Mean corpuscular hemoglobin concentration (MCHC) / Mean corpuscular volume (MCV) / Mean platelet volume (MPV) / Platelet count (PLT) / Platelet distribution width (PDW) / Plateletocrit (PCT) / Red blood cell volume distribution width (RDW) / Red blood count (RBC) / White blood cell count (WBC): after 2 weeks
Experimental: 1. Photodynamic therapy experiments on tumors were carried out by using BJMU-204 as a photosensitizer and BALB/C mice as experimental animals.
Modeling mode: BALB/C mice were divided into 5 groups in total, 11-12 mice in each group. 4T1 cells (breast cancer cells in mice) were resuscitated and subcultured to a better cell state for tumorigenesis inoculation. BALB/C mice were locally depilated and disinfected, and tumor cells were injected into the mouse mammary fat pad in situ. Tumors were formed within 7 to 10 days.
Administration time: drug intervention was given to mice after tumor formation, and photodynamic therapy was given by intratumoral injection every other day under the irradiation of laser with a wavelength of 450 nm to 480 nm at a light intensity of 200 mW/cm^2.
Administration mode: as shown in the table below, the photosensitizer was dissolved in physiological saline and injected in mice in groups 1-3 intratumorally, and the groups receiving photodynamic therapy were irradiated with light immediately after the injection.
2. Mice in each experimental group were subjected to blood collection for serum separation and necropsy, and tumors were taken out and measured to obtain their wet weights; tumor tissues were fixed, pathological examinations were performed, and H. E. staining was used to observe the changes of tumors of the mice under an optical microscope; blood routine indicators (including white blood cell count (WBC), red blood cell count (RBC), lymphocyte count (LY), platelet count (PLT) and many other blood routine indicators) and blood biochemical indicators (including routine blood biochemical indicators) were tested and analyzed in the Laboratory of Peking University Third Hospital.

[2] = Phototoxicity to healthy mice (body weight, blood routine, blood biochemistry); format: in vivo, BALB/C mice
Experimental: BALB/C mice were divided into 2 groups in total, 9 mice in each group. The mice were fed adaptively for 2 days. Mice in a control group were fed normally, and mice in an experimental group were given photodynamic therapy by subcutaneous injection every other day under the irradiation of laser with a wavelength of 450 nm to 480 nm at a light intensity of 200 mW/cm^2.
Administration mode: as shown in the table below, the photosensitizer was dissolved in physiological saline and subcutaneously injected in mice in the experimental group, and the group receiving photodynamic therapy was irradiated with light immediately after the injection.
2. The mice in the experimental group and the control group were weighed every other day. At the end of the experiment, the mice were subjected to blood collection for serum separation and necropsy, and blood routine indicators (including WBC, RBC, LY, PLT and many other blood routine indicators) and blood biochemical indicators (including routine blood biochemical indicators) were tested and analyzed in the Laboratory of Peking University Third Hospital.

[3] = tested on: human cervical cancer Hela cells; test: MTT cytotoxicity, Experimental Example 5; format: cell-based
Experimental: (§1) (1) Logarithmic phase cells were collected, the concentration of a cell suspension was adjusted, the cell suspension was added to a cell culture plate in a dose of 100 μL per well, and the cells were then added to a cell culture plate so that the density of the cells to be tested was adjusted to 1000-10000 wells (edge wells were filled with sterile PBS). […] Generally, the drug in 5 to 7 gradients was added in a dose of 100 μL per well, and 3 to 5 wells were set for each concentration of a drug. […] Cells in the experimental photosensitizer-light irradiation group were incubated for 15 min and then irradiated with light. […] After light irradiation, the cells were washed with PBS. […] After light irradiation, the cells were washed with PBS. […] If the drug could react with the MTT, centrifuging was carried out first, and then the culture solution was discarded and the cells were carefully washed twice or three times with PBS, and then the culture solution containing MTT was added. (6) The culture was terminated and the culture solution in the wells was carefully removed. (7) Dimethyl sulfoxide was added in a dose of 150 μL per well, and the plate was then shaken on a shaker at a low speed for 10 min to fully dissolve crystals. The absorbance at OD 490 nm of each well was measured with enzyme-linked immunoassay. […]

[4] = tested on: human immortalized keratinocyte (Hacat cells); test: MTT cytotoxicity to normal cells, Experimental Example 5; format: cell-based
Experimental: as §1

[5] = Control group-1: intratumoral injection 3%, no light
[6] = High-concentration (3%) intratumoral injection + light 10 min
[7] = Low-concentration (0.5%) intratumoral injection + light 10 min
[8] = 3% subcutaneous injection + light 10 min, after 2 weeks

For `CC(=O)C(C)=O` [BJMU-204], which “Hematocrit (HCT)” value [1, 5] is on record?
Its value is 28.8 ± 5.76.

And the “Hemoglobin (HGB)” value [1, 5]?
The value was 117 ± 26.64.

And the “Mean corpuscular hemoglobin (MCH)” value [1, 5]?
Its value is 18.43 ± 0.67.

And the “Mean corpuscular hemoglobin concentration (MCHC)” value [1, 5]?
The value was 404.5 ± 26.01.

And the “Mean corpuscular volume (MCV)” value [1, 5]?
Its value is 45.65 ± 1.35.

And the “Mean platelet volume (MPV)” value [1, 5]?
Its value is 6.1 ± 0.

What about the “Platelet count (PLT)” value [1, 5] of the same compound?
The value was 312 ± 125.04.

What about the “Platelet distribution width (PDW)” value [1, 5] of the same compound?
The value was 16.2 ± 0.

What about the “Plateletocrit (PCT)” value [1, 5] of the same compound?
The value was 0.24 ± 0.

And the “Red blood cell volume distribution width (RDW)” value [1, 5]?
The value was 14.18 ± 0.75.

And the “Red blood count (RBC)” value [1, 5]?
The value was 6.33 ± 1.36.

What about the “White blood cell count (WBC)” value [1, 5] of the same compound?
The value was 352.8 ± 45.95.

What about the “Hematocrit (HCT)” value [1, 6] of the same compound?
Its value is 32.4 ± 12.48.

And the “Hemoglobin (HGB)” value [1, 6]?
The value was 123 ± 40.8.

And the “Mean corpuscular hemoglobin (MCH)” value [1, 6]?
Its value is 18.43 ± 1.93.

What about the “Mean corpuscular hemoglobin concentration (MCHC)” value [1, 6] of the same compound?
The value was 387.5 ± 40.38.

And the “Mean corpuscular volume (MCV)” value [1, 6]?
Its value is 47.5 ± 1.95.

And the “Mean platelet volume (MPV)” value [1, 6]?
The value was 6.63 ± 0.76.

And the “Platelet count (PLT)” value [1, 6]?
The value was 267 ± 167.28.

And the “Platelet distribution width (PDW)” value [1, 6]?
Its value is 15.13 ± 0.76.

And the “Plateletocrit (PCT)” value [1, 6]?
Its value is 0.24 ± 0.12.

And the “Red blood cell volume distribution width (RDW)” value [1, 6]?
Its value is 14.58 ± 0.84.

And the “Red blood count (RBC)” value [1, 6]?
The value was 6.81 ± 2.51.

And the “White blood cell count (WBC)” value [1, 6]?
Its value is 136.8 ± 31.45.

And the “Hematocrit (HCT)” value [1, 7]?
Its value is 32.64 ± 12.12.

What about the “Hemoglobin (HGB)” value [1, 7] of the same compound?
Its value is 141.6 ± 42.72.

And the “Mean corpuscular hemoglobin (MCH)” value [1, 7]?
The value was 20.1 ± 1.84.

What about the “Mean corpuscular hemoglobin concentration (MCHC)” value [1, 7] of the same compound?
Its value is 447 ± 48.54.

What about the “Mean corpuscular volume (MCV)” value [1, 7] of the same compound?
The value was 45.04 ± 1.21.

And the “Mean platelet volume (MPV)” value [1, 7]?
Its value is 6.23 ± 0.61.

What about the “Platelet count (PLT)” value [1, 7] of the same compound?
The value was 494.4 ± 387.6.

And the “Platelet distribution width (PDW)” value [1, 7]?
The value was 13.37 ± 1.47.

And the “Plateletocrit (PCT)” value [1, 7]?
Its value is 0.48 ± 0.24.

And the “Red blood cell volume distribution width (RDW)” value [1, 7]?
The value was 13.78 ± 0.59.

What about the “Red blood count (RBC)” value [1, 7] of the same compound?
Its value is 7.22 ± 2.62.

What about the “White blood cell count (WBC)” value [1, 7] of the same compound?
Its value is 193.5 ± 70.

What about the “number of platelets and white blood cells in the blood” value ([1]; treated groups vs control groups (p<0.001), after 2 weeks of treatment) of the same compound?
Its value is “decreases”.

And the “liver, kidney and blood toxicity” value ([1]; tumor-bearing mice, continuous treatment for 14 days at high or low concentration therapeutic doses)?
The value was “will not cause liver, kidney and blood toxicity”.

What about the “body weight, experimental group vs control group” value ([2]; 3% subcutaneous + light, 14 days after treatment) of the same compound?
The value was “no significant difference”.

What about the “Hematocrit (HCT)” value [2, 8] of the same compound?
Its value is 45.22 ± 2.83.

What about the “Hemoglobin (HGB)” value [2, 8] of the same compound?
Its value is 160.22 ± 12.07.

And the “Mean corpuscular hemoglobin (MCH)” value [2, 8]?
Its value is 16.18 ± 0.34.

What about the “Mean corpuscular hemoglobin concentration (MCHC)” value [2, 8] of the same compound?
Its value is 354.11 ± 8.19.

And the “Mean corpuscular volume (MCV)” value [2, 8]?
Its value is 45.71 ± 0.6.

And the “Mean platelet volume (MPV)” value [2, 8]?
The value was 6.23 ± 0.37.

What about the “Platelet count (PLT)” value [2, 8] of the same compound?
The value was 290 ± 50.23.

And the “Platelet distribution width (PDW)” value [2, 8]?
Its value is 14.84 ± 0.6.

And the “Plateletocrit (PCT)” value [2, 8]?
Its value is 0.17 ± 0.03.

What about the “Red blood cell volume distribution width (RDW)” value [2, 8] of the same compound?
Its value is 12.67 ± 0.54.

And the “Red blood count (RBC)” value [2, 8]?
Its value is 9.9 ± 0.72.

And the “White blood cell count (WBC)” value [2, 8]?
The value was 6.56 ± 0.54.

What about the “liver, kidney and blood toxicity” value ([2]; continuous treatment for 14 days at high concentration therapeutic doses) of the same compound?
The value was “will not cause liver, kidney and blood toxicity”.

And the “cytotoxicity to Hela cells” value ([3]; given in the dark)?
Its value is “relatively low cytotoxicity”.

And the “cytotoxicity to Hela cells” value ([3]; given under blue light, 450-480 nm, 110 mW/cm^2, 900 s)?
Its value is “relatively high cytotoxicity”.

What about the “cytotoxicity to Hacat cells” value [4] of the same compound?
Its value is “relatively low cytotoxicity”.
